According to EP0595743B1, “Bihaptinic derivatives for binding technetium or rhenium, process for their preparation, application for diagnosis and therapy, kits and immunological reactants comprising them” (priority 1992, dated 2001):

Assays:
cellules LS-174 T = details: LS-174 T cells 7.10^6/ml, 4 °C, 2 h; nanomolar concentrations of bispecific antibody (anti-CEA/anti-histamine-succinyl-glycine); maximum binding
Protocol: Des cellules LS-174 T (7.10^6 cellules/ml), cellules d'origine humaine connues pour exprimer à leur surface l'antigène carcino-embryonnaire, sont incubées à 4° C pendant 2 heures dans des tubes contenant un tampon phosphate isotonique à pH 7,3. Dans ces tubes, ont été ajoutés à des concentrations variables le conjugué bispécifique approprié (anti-antigène carcino-embryonnaire/anti-histamine-succinyl-glycine), marqué à l'iode-125 suivant une des techniques bien connues et la sonde, marquée au ^99mTc comme décrit ci-dessus. Ces concentrations sont calculées pour couvrir un domaine s'étendant de concentrations très inférieures à très supérieures à la concentration de l'antigène cible dans le mélange. A la fin de cette incubation, 100 µl de mélange sont transférés en triplicates dans des tubes contenant un mélange de phthalates. Les tubes sont centrifugés 30 secondes à environ 5000 g. Les cellules, plus denses que les phthalates, forment un culot alors que le surnageant reste à la surface. On peut alors compter séparément les activités (^125I et ^99mTc) liées aux cellules et les activités non liées et en calculer les rapports.

[1] = system: lymphocytes de souris BALB/c qui expriment l'antigène Lyb 8.2; details: 1 µg conjugate CY34-679.1MC7 a few minutes earlier; 100 µCi; 4 h after injection
Protocol: (§1) La liaison du dérivé de l'exemple 3 aux cellules hépatiques s'effectue par l'intermédiaire de sa liaison au site Ac de l'anticorps 679.1MC7, lui même lié par son fragment F(c) à ces cellules. Des souris ayant reçu 2µg d'anticorps 679.1MC7 24 heures plus tôt sont injectées par voie intraveineuse avec 100 µCi (15 pmol) de dérivé de l'exemple 3. Les images sont réalisées avec une caméra Sopha Medical Gammatome 2 équipée avec un collimateur haute résolution de moyenne énergie, puis les animaux sont sacrifiés et la radioactivité présente dans le foie est déterminée à l'aide d'un compteur gamma. […] 100 µCi de dérivé de l'exemple 3 sont injectés à une souris ayant reçu quelques minutes plus tôt 1µg de conjugué anticorps CY34-679.1MC7 (anti-lyb8.2-anti-Histamine-Succinyl-Glycine). Les images sont enregistrées comme indiqué dans l'exemple précédent. […] Des cellules de tumeurs colorectales humaines (cellules LS 174, 3.10^6) sont injectées par voie sous cutanée à des souris nudes. […] Les souris reçoivent alors 2µg de conjugué anticorps F6-679.1MC7 (antiCEA-anti-Histamine-Succinyl-Glycine). Vingt quatre heures plus tard les souris reçoivent 6,7µCi (1pmol) de dérivé de l'exemple 3. Six heures plus tard les images sont enregistrées comme indiqué dans l'exemple précédent puis les animaux sacrifiés.

[2] = system: tumeurs colorectales humaines (LS174); details: 2 µg conjugate F6-679.1MC7 24 h earlier, 6,7 µCi (1 pmol)
Protocol: as §1

cellules hépatiques = details: 2 µg antibody 679.1MC7 24 h earlier; 100 µCi (15 pmol) i.v.; 4 h after injection
Protocol: as §1

For “^99mTc mercaptoacétyl-Glycyl-Glycyl-Glycyl-N-ε-(Histamine-Succinyl-Glycine)-Lysyl-D-Tyrosyl-N-ε-(Histamine-Succinyl-Glycine)-Lysinamide [Exemple 3]”, the “pourcentage de sonde lié par rapport à sa quantité totale” value (cellules LS-174 T) was about 70%, the “% de la dose injectée localisée dans la rate” value [1] was 43 ± 3 % de la dose injectée and the “scintigraphie de la rate” value [1] was “apparente en scintigraphie”. The visibilité des tumeurs [2] was “visibles dès trois heures après l'injection”, the “localisation de la radioactivité” value ([2]; 6 h after injection) was 9,8 ± 3,7 % / g de tumeur and the “rapport de marquage tumeur/plasma” value ([2]; 6 h after injection) was 2.0 + 0.5. For the same substance, the “% de la dose injectée localisée dans le foie” value (cellules hépatiques) was 54 ± 6 % de la dose injectée and the scintigraphie du foie (cellules hépatiques) was “apparent en scintigraphie”.
